Holding throughout (type): cell-based
In assay [1] the target is protein kinases (human kinome) (Homo sapiens, UniProt P19525). The settings on record: for logFC: EIF2AK2 (P19525).
Assay [2] deals with protein kinases (human kinome) (Homo sapiens, UniProt P07948). The conditions noted are these: for logFC: LYN (P07948-1).
Assay [3] deals with protein kinases (human kinome) (Homo sapiens, UniProt Q9H3S4). The conditions noted are these: TPK1 (Q9H3S4); experiment wp114.
Assay [4] concerns the target T1, protein kinases (human kinome) (Homo sapiens, UniProt Q96D53).
T1 sequence (Q96D53 1-544): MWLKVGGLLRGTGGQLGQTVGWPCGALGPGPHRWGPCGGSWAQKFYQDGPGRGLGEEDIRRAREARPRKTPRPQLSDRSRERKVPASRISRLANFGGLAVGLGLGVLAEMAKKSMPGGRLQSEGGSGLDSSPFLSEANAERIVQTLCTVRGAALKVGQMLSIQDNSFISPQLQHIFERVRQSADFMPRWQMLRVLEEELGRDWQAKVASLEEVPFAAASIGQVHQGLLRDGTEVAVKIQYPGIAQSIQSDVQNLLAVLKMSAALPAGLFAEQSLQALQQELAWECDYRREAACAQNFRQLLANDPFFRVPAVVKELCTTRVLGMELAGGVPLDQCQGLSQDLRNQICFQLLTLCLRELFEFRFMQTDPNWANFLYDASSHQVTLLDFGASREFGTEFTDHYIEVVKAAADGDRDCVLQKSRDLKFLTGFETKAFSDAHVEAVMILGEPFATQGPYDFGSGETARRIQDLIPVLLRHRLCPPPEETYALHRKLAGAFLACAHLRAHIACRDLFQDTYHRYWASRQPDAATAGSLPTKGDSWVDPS
The conditions noted are these: experiment wp137; for logFC: COQ8B (Q96D53-1).

Assay [5] deals with protein kinases (human kinome) (Homo sapiens, UniProt O00311). The settings on record: for logFC: CDC7 (O00311-1).
protein kinases (human kinome) (Homo sapiens, UniProt O00311), sequence (O00311 whole entry): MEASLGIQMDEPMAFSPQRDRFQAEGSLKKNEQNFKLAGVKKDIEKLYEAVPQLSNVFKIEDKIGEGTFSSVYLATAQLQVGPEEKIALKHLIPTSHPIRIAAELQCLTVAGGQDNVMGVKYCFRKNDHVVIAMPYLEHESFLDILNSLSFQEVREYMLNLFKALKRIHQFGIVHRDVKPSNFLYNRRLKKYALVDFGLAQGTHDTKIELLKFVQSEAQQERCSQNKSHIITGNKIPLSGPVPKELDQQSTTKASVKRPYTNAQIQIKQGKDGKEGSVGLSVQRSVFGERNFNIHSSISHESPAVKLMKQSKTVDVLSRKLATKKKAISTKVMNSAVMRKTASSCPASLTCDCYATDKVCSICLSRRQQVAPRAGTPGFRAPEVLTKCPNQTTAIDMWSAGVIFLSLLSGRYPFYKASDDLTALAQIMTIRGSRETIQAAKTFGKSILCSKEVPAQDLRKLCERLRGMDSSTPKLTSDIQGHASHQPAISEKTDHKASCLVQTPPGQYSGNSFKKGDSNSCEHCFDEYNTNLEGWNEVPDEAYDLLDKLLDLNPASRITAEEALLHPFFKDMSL
In assay [6] the target is T2, protein kinases (human kinome) (Homo sapiens, UniProt O14757).
T2 sequence (O14757 1-476): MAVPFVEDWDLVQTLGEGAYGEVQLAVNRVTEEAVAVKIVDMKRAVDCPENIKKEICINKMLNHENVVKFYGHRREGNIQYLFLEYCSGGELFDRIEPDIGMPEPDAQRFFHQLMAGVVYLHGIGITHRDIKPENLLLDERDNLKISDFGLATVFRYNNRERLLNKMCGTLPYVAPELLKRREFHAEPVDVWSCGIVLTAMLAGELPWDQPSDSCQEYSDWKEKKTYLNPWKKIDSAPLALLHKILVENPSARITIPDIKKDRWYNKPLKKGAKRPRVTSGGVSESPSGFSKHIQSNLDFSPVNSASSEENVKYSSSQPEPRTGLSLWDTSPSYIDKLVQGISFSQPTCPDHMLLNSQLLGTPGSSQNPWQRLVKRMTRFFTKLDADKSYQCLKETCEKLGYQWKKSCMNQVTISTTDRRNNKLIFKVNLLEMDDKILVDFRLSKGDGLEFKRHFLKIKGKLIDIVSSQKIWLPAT
The conditions noted are these: for logFC: CHEK1 (O14757).

Assay [7] addresses protein kinases (human kinome) (Homo sapiens, UniProt O75676). The conditions noted are these: for logFC: RPS6KA4 (O75676).
For assay [8], the target named is T3, protein kinases (human kinome) (Homo sapiens, UniProt Q9NWZ3).
T3 sequence (Q9NWZ3 1-460): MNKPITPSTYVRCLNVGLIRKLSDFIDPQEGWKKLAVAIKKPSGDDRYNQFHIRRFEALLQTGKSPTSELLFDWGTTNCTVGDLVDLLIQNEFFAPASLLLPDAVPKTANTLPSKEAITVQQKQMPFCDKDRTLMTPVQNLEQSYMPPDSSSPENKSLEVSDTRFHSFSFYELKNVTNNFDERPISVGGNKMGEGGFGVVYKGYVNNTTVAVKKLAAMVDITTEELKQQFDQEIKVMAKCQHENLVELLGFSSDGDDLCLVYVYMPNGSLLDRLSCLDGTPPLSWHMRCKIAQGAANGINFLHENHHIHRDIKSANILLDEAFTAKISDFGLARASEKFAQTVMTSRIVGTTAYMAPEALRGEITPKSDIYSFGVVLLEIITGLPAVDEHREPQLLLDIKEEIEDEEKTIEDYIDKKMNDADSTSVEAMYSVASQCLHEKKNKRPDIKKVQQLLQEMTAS
The conditions noted are these: for logFC: IRAK4 (Q9NWZ3-1).

The target in assay [9] is protein kinases (human kinome) (Homo sapiens, UniProt P51617). The settings on record: IRAK1 (P51617).
protein kinases (human kinome) (Homo sapiens, UniProt P51617), sequence (P51617 whole entry): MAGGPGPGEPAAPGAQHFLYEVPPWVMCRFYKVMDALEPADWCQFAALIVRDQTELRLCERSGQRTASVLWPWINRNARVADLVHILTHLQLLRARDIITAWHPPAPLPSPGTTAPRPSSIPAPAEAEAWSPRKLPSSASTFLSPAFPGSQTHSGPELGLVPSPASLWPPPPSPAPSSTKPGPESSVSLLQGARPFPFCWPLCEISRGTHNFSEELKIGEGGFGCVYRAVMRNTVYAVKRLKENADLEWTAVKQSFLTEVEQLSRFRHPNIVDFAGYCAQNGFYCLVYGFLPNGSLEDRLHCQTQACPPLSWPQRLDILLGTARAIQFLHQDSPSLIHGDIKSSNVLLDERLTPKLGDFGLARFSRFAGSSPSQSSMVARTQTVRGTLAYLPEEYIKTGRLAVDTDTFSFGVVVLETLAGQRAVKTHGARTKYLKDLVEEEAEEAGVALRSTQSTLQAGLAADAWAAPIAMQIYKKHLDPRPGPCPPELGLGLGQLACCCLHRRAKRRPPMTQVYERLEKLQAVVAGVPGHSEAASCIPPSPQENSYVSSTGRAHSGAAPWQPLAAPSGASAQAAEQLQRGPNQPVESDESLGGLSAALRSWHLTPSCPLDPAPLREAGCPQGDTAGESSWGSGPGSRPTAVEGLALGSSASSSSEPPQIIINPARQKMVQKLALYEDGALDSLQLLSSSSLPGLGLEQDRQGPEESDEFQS

The text below walks through data of patent publication US20240269139A1, “COMPOUNDS FOR TARGETED PROTEIN DEGRADATION OF KINASES” (DANA-FARBER CANCER INSTITUTE, INC., priority 2020, published 2024).

Where two headings read alike, the source gives them in different places.

protein kinases (human kinome) (Homo sapiens, UniProt P07948), sequence (P07948 whole entry): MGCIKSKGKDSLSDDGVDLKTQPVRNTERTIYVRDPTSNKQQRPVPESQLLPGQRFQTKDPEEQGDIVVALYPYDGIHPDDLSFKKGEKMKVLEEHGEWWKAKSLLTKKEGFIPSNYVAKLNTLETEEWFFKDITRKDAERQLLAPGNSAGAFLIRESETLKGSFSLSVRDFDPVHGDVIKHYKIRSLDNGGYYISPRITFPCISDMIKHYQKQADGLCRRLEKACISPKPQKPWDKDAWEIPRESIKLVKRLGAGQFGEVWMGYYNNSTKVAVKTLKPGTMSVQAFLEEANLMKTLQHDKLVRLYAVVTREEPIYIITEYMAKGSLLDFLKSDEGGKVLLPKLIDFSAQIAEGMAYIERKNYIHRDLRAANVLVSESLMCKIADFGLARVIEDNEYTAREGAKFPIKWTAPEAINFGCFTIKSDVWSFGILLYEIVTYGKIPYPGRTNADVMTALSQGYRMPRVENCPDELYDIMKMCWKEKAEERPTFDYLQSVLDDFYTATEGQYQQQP
protein kinases (human kinome) (Homo sapiens, UniProt P19525), sequence (P19525 whole entry): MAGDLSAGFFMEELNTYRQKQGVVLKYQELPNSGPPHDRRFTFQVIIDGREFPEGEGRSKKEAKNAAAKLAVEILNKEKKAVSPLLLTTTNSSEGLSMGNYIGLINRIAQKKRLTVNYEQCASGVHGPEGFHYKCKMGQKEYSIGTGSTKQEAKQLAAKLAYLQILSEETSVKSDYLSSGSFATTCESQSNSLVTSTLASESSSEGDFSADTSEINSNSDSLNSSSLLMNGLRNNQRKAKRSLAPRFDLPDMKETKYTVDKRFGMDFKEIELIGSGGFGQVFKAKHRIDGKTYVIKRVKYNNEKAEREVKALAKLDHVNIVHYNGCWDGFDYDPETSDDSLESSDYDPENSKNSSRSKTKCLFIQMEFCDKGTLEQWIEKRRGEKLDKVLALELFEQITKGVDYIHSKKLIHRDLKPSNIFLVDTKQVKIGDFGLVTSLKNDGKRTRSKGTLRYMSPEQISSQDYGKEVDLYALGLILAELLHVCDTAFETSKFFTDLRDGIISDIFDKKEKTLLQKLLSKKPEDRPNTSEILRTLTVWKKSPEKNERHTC
protein kinases (human kinome) (Homo sapiens, UniProt O75676), sequence (O75676 whole entry): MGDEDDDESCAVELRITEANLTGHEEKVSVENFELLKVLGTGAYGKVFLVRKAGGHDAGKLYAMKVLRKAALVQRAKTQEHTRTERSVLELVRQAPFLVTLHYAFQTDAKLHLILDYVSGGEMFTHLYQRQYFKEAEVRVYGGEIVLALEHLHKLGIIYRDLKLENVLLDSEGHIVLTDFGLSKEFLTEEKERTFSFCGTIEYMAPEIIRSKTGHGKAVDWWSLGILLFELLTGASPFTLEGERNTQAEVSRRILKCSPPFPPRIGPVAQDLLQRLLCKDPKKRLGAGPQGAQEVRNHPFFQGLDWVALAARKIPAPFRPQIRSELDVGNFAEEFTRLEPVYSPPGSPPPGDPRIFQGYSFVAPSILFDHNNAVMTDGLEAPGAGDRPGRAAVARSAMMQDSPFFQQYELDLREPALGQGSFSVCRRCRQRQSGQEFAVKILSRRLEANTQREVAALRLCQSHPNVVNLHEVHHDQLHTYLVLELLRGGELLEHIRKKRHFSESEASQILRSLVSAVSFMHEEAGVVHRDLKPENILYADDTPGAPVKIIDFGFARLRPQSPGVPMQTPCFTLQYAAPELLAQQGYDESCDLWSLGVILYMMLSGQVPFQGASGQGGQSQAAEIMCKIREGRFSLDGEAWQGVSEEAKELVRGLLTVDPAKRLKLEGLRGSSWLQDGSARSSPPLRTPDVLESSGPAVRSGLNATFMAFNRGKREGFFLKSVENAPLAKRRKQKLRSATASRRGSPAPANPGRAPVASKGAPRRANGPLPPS
protein kinases (human kinome) (Homo sapiens, UniProt Q9H3S4), sequence (Q9H3S4 whole entry): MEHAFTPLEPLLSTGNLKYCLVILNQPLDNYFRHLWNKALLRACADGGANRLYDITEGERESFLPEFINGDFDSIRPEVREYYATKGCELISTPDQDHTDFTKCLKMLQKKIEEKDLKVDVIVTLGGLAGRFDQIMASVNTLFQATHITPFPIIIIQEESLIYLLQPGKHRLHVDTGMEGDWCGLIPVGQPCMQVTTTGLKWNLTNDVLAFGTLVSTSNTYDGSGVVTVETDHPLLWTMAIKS

For `CS(=O)(=O)Nc1cccc(-c2csc3cnc(Nc4ccc(N5CCN(CCCCCOc6cccc7c6C(=O)N(C6CCC(=O)NC6=O)C7=O)CC5)cc4)nc23)c1` (stereo not drawn) [DB0614, N-(3-(2-((4-(4-(5-((2-(2,6-Dioxopiperidin-3-yl)-1,3-dioxoisoindolin-4-yl)oxy)pentyl)piperazin-1-yl)phenyl)amino)thieno[3,2-d]pyrimidin-7-yl)phenyl)methanesulfonamide], the logFC in assay [1] (experiment wp117) was −0.3221. For the same molecule, the “logFC of EIF2AK2 (P19525)” value in assay [1] (Experiment wp117) is given as −0.3221.
Take `Cc1ccc(NC(=O)c2cccc(C(F)(F)F)c2)cc1N1Cc2cnc(Nc3ccc(N4CCN(Cc5cn(CCCCCOc6cccc7c6C(=O)N(C6CCC(=O)NC6=O)C7=O)nn5)CC4)nc3)nc2N(C)C1=O` (stereo not drawn) [DB0646, N-(3-(7-((6-(4-((1-(5-((2-(2,6-Dioxopiperidin-3-yl)-1,3-dioxoisoindolin-4-yl)oxy)pentyl)-1H-1,2,3-triazol-4-yl)methyl)piperazin-1-v)pyridin-3-yl)amino)-1-methyl-2-oxo-1,4-dihydropyrimido[4,5-d]pyrimidin-3(2H)-yl)-4-methylphenyl)-3-(trifluoromethyl)benzamide]: in assay [2] (Experiment wp172), the “logFC of LYN (P07948-1)” value was −0.7938. Moreover, the logFC in assay [2] (experiment wp172) is reported as −0.7938; in assay [3], −1.144.
Turning to `CC(C)(C)c1nc(-c2cccc(NS(=O)(=O)c3c(F)cccc3F)c2F)c(-c2ccnc(NCCOCCNC(=O)CCOCCOCCNc3cccc4c3C(=O)N(C3CCC(=O)NC3=O)C4=O)n2)s1` (stereo not drawn) [DD.03.106], the logFC is listed as −0.3545 in assay [1] (experiment wp147, 2 uM); −0.4042 in assay [1] (experiment wp147, 4 uM); −0.3442 in assay [4]. Further, the “logFC of EIF2AK2 (P19525)” value in assay [1] (Experiment wp147, 2 uM) is on record as −0.3545; in assay [1] (Experiment wp147, 4 uM), −0.4042. For the same molecule, the “logFC of COQ8B (Q96D53-1)” value in assay [4] is given as −0.3442.
Take `Cc1ncsc1-c1ccc([C@H](C)NC(=O)[C@@H]2C[C@@H](O)CN2C(=O)[C@@H](NC(=O)CCOCCOCCN2CCN(c3ccc(Nc4ncc(Cl)c(Nc5ccccc5S(=O)(=O)C(C)C)n4)cc3)CC2)C(C)(C)C)cc1` [FMF.06.098.1]: the logFC in [5] (experiment wp108) was −0.3323; in [5] (experiment wp131) it was −0.4109; in assay [6] (experiment wp108) it was −0.3674; in assay [6] (experiment wp114), −0.4124; in assay [7] (experiment wp108), −0.4196; in [7] (experiment wp131), −0.5351. Besides, the logFC in assay [3] is −0.8744; in [8] (experiment wp108), −0.6505; in [8] (experiment wp131) it was −0.7086. Also, the “logFC of CDC7 (O00311-1)” value is −0.3323 in assay [5] (Experiment wp108) and −0.4109 in [5] (experiment wp131). For the same molecule, the figures for the “logFC of CHEK1 (O14757)” value in [6] (Experiment wp108) and in assay [6] (Experiment wp114) were −0.3674 and −0.4124, respectively. Further, the “logFC of RPSGKA4 (O75676)” value in assay [7] (Experiment wp108) is recorded as −0.4196. Moreover, the “logFC of RPS6KA4 (O75676)” value in [7] (experiment wp131) is reported as −0.5351. For the same molecule, the “logFC of IRAK4 (Q9NWZ3-1)” value in assay [8] (Experiment wp108) is recorded as −0.6505; in [8] (experiment wp131), −0.7086.
For `O=C1CCC(N2C(=O)c3cccc(NCCCCCCCCN4CCC(NC(=O)c5[nH]ncc5NC(=O)c5c(Cl)cccc5Cl)CC4)c3C2=O)C(=O)N1` (stereo not drawn) [MFH.5.126.1], in assay [6] (experiment wp076), the logFC is reported as −0.3606 and the “logFC of CHEK1 (O14757)” value is given as −0.3606.
Consider `Cc1ccc(C(=O)Nc2ccc(CN3CCN(CCCOCCOCCOCCNC(=O)COc4cccc5c4C(=O)N(C4CCC(=O)NC4=O)C5=O)CC3)c(C(F)(F)F)c2)cc1C#Cc1cnc2cccnn12` (stereo not drawn) [SB1.G.187], for which the logFC is on record as −1.23 in assay [2] (experiment wp172); −1.578 in assay [9] (experiment wp056); −1.578 in assay [9] (experiment wp056, direction down); −1.504 in [9] (experiment wp103); −1.504 in assay [9] (experiment wp103, direction down); −1.404 in [9] (experiment wp105). Moreover, the logFC is on record as −1.404 in assay [9] (experiment wp105, direction down); −1.996 in [9] (experiment wp107); −1.996 in assay [9] (experiment wp107, direction down); −1.572 in assay [9] (experiment wp172); −1.572 in assay [9] (experiment wp172, direction down). For the same molecule, in [2] (experiment wp172, direction of change down), the “logFC LYN (P07948-1)” value is recorded as −1.23.
As for `CC(C)S(=O)(=O)c1ccccc1Nc1nc(Nc2ccc(N3CCN(CCOCCNC(=O)CNc4cccc5c4C(=O)N(C4CCC(=O)NC4=O)C5=O)CC3)cc2)ncc1Cl` (stereo not drawn) [SK.3.91], in [5] (experiment wp133, 4 hr), the logFC is recorded as −0.3652 and the “logFC of CDC7 (O00311-1)” value is given as −0.3652.
On to `CC(C)S(=O)(=O)c1ccccc1Nc1nc(Nc2ccc(N3CCN(CCOCCOCCNC(=O)CNc4cccc5c4C(=O)N(C4CCC(=O)NC4=O)C5=O)CC3)cc2)ncc1Cl` (stereo not drawn) [TL12.186], for which, in [4], the logFC is on record as −0.4934 and the “logFC of COQ8B (Q96D53-1)” value was −0.4934. In assay [8] (experiment wp131), the logFC was −0.4293 and the “logFC of IRAK4 (Q9NWZ3-1)” value is recorded as −0.4293. Also, in assay [8] (experiment wp137), the logFC was −0.4185 and the “logFC of IRAK4 (Q9NWZ3-1)” value was −0.4185.
Take `Cc1ccc(C(=O)Nc2ccc(CN3CCN(CCOCCOCCNC(=O)CNc4cccc5c4C(=O)N(C4CCC(=O)NC4=O)C5=O)CC3)c(C(F)(F)F)c2)cc1C#Cc1cnc2cccnn12` (stereo not drawn) [TL13.150]: the logFC was −2.834 in [9] (experiment wp081) and −2.834 in [9] (experiment wp081, direction down).
As for `Cc1cc(Nc2ncc(Br)c(Nc3cccc(F)c3C(N)=O)n2)ccc1S(=O)(=O)NCCOCCOCCOCCOCCNc1cccc2c1C(=O)N(C1CCC(=O)NC1=O)C2=O` (stereo not drawn) [TMX.02.174], in assay [7] (experiment wp146), the logFC is −1.5 and the “logFC of RPS6KA4 (O75676)” value is reported as −1.5.
